Assay results reported in patent US6730660B2, “Peritoneal dialysis solutions with polypeptides” (Baxter International Inc., priority 1992, dated 2004).

System: albino guinea pigs
Assay: Dermal sensitization study: intradermal induction with Freund's Complete Adjuvant, then intradermal challenge
Type: in vivo, guinea pig
Experimental: The study was conducted using 10 test animals and four naive control animals per test or positive control material. On Day 1, animals in each test group received duplicate 0.05-mL intradermal injections of a 1:1 ratio of Freund's Complete Adjuvant in sterile water, the respective test material, and a 1:1 ratio of the respective test material in Freund's Complete Adjuvant.
For the positive control group, the animals received duplicate 0.05-mL intradermal injections of a 1:1 ratio of Freund's Complete Adjuvant in sterile water, a 5% w/v suspension of sulfathiazole in sterile water, and a 5% w/v suspension of sulfathiazole in Freund's Complete Adjuvant.
On day 7, animals in all three test groups and the positive control group were pretreated with 10% w/w sodium lauryl sulfate in petrolatum applied topically at the shaved area of the Day 1 intradermal injections. On Day 8, the respective test or positive control material was injected intradermally at a volume of 0.05 mL into two separate areas located just posterior to the initial intradermal injections.
All the test materials were administered undiluted and the positive control was administered as a 5% w/v suspension of sulfathiazole in sterile water. All naive control animals were not treated during the induction phase.
Two weeks following the Day 8 intradermal injections, all animals in the respective test and naive control groups received a challenge intradermal injection. The respective undiluted test material was injected intradermally at a volume of 0.05-mL into one site on the shaved right flank of each respective animal. The positive control animals were treated with a 1% w/v suspension of sulfathiazole in sterile 0.9% saline. The sites were examined for erythema and edema at 24, 48, and 72 hours following injection.
Young adult albino guinea pigs, Hra:(DH)SPF, were procured, maintained individually in screen-bottom stainless steel cages in temperature- and humidity-controlled rooms, provided continuous access to Certified Guinea Pig Chow® 5026, Purina Mills, Inc., and water and held for an acclimation period of at least 7 days. If variations from the prescribed environmental conditions existed, they were documented and considered to have no effect on the study outcome. No contaminants were expected to have been present in the feed or water which would have interfered with or affected the results of the study.
Intradermal Injections (Day 1) A 4-cm×6-cm area was clipped along the midline over the shoulder region of each animal in the test and positive control groups. Six intradermal injections were made within the boundaries of a 2-cm×4-cm area, one row of three injections on each side of the midline as follows: […]

## Nc1ccc(S(=O)(=O)Nc2nccs2)cc1 [Sulfathiazole]
Day 22 intradermal challenge 0.05 mL, examined at 24, 48 and 72 hours
  dermal reactions at challenge: Dermal sensitization responses were observed
Animal E17221, Group 11, third week of the study
  body weight loss of one animal: 76 g
Guinea pig, after intradermal challenge
  Classification (sensitizer): Sensitizer
Test or positive control groups, after intradermal challenge
  # of Positive Reactions/# in Group: 9/10
